Experimental findings from ChEMBL document CHEMBL4673325, “Identification of 2-substituted pyrrolo[1,2-b]pyridazine derivatives as new PARP-1 inhibitors” (Bioorg Med Chem Lett, 2021) are described below.

Experiment [1] has as its system MDA-MB-436. As to the kind of experiment: Antiproliferative activity against BRCA1 deficient human MDA-MB-436 cells. The experiment is classed as functional.
Experiment [2] is filed under the species Homo sapiens. As to the kind of experiment: Selectivity index, ratio of IC50 for PARP-2 (unknown origin) to IC50 for PARP-1 (unknown origin).
Experiment [3] deals with Poly [ADP-ribose] polymerase 1 (Homo sapiens, UniProt P09874). The experiment in a line: Inhibition of PARP-1 (unknown origin).
Chain of Poly [ADP-ribose] polymerase 1 (P09874 whole entry): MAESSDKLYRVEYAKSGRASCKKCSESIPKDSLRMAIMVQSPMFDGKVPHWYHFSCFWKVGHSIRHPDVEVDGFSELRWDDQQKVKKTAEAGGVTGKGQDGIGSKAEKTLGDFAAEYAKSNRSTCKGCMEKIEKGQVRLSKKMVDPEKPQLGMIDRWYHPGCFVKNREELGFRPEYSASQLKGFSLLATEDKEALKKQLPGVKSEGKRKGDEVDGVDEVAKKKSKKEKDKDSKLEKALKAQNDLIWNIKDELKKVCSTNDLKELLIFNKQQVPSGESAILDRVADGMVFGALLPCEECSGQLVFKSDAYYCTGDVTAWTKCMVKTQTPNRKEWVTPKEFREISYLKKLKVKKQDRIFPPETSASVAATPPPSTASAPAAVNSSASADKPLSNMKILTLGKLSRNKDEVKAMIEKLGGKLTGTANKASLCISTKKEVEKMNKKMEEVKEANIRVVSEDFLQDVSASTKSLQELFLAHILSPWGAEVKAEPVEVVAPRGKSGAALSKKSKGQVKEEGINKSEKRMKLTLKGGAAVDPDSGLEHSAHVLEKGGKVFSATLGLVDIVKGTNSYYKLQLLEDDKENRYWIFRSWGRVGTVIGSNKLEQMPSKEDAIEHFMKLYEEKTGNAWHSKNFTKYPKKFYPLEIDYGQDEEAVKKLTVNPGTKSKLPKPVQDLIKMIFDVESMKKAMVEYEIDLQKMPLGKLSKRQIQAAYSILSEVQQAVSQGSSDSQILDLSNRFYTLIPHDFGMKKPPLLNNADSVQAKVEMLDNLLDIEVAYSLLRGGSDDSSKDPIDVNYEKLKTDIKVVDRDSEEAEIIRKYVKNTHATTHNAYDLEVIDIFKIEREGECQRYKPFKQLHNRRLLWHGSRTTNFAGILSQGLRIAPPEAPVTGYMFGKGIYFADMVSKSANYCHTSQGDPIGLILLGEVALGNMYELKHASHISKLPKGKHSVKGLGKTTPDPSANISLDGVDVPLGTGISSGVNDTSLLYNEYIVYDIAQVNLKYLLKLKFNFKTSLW
In experiment [4] the target is Poly [ADP-ribose] polymerase 2 (Homo sapiens, UniProt Q9UGN5). The experiment in a line: Inhibition of PARP-2 (unknown origin).
Chain of Poly [ADP-ribose] polymerase 2 (Q9UGN5 whole entry): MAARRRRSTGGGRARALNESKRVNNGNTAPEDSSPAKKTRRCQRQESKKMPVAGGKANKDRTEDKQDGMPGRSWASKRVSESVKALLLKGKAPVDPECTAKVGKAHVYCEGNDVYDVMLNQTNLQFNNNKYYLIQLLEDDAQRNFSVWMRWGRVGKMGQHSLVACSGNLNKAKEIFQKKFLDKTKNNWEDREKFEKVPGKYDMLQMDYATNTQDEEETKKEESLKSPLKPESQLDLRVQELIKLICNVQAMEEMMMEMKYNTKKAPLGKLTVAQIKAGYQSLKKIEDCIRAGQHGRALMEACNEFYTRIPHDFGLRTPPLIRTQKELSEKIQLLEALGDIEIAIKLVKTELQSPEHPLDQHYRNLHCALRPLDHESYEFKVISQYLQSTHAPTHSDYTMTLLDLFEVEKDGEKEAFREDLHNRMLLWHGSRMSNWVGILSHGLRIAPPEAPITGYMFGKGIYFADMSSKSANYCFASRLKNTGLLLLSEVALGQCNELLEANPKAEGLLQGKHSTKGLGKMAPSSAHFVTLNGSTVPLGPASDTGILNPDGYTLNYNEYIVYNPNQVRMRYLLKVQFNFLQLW
Experiment [5] in a line: Antiproliferative activity against BRCA2 deficient chinese hamster V-C8 cells. The experiment is classed as functional, Cricetulus griseus.
Experiment [6] relates to MDA-MB-436. The experiment in a line: Antitumor activity against human MDA-MB-436 cells harboring BRCA1 mutation xenografted in mouse assessed as tumor growth inhibition administered orally for 21 days. The conditions noted are these: time 21.0 day. The experiment is classed as functional.

In general, CC50 refers to the concentration at which the toxic effect on the cells reaches its halfway point. High values mean lower toxicity to the cells, low ones greater toxicity to the cells. What is called IC50 is the midpoint of a concentration-inhibition curve. `COC1CCN(C(=O)c2ccc(-c3ccc4c(Cl)cc(C(N)=O)n4n3)cc2)C1` (centres undefined) returned a 50% cytotoxic concentration (CC50) in experiment [1] (Homo sapiens, MDA-MB-436) of 9640 nM. In addition, in experiment [2], the Ratio IC50 was determined as 4.74. In addition, the values for the IC50 in experiment [3] and in experiment [4] were 362 nM and 1710 nM, respectively.

For the compound `CN(C)Cc1ccc(-c2ccc3c(Cl)cc(C(N)=O)n3n2)cc1`, the CC50 in experiment [5] (Cricetulus griseus, V-C8) was determined as 6200 nM; in experiment [1] (Homo sapiens, MDA-MB-436), 687 nM. Moreover, the Ratio IC50 in experiment [2] is 7.5. For the same compound, the IC50 in experiment [3] worked out at 93.3 nM; in experiment [4] it was 705 nM.

With `CN1CCc2cc(-c3ccc4c(Cl)cc(C(N)=O)n4n3)sc2C1`, the CC50 was 3620 nM in experiment [5] (Cricetulus griseus, V-C8) and 2580 nM in experiment [1] (Homo sapiens, MDA-MB-436). The Ratio IC50 in experiment [2] worked out at 2.7. Further, the values for the IC50 in experiment [3] and in experiment [4] were 141 nM and 382 nM, respectively.

`NC(=O)c1cc(Cl)c2ccc(-c3ccc(F)c(C(=O)N4CCN(C(=O)C5CC5)CC4)c3)nn12` displayed a CC50 in experiment [5] (Cricetulus griseus, V-C8) of 7030 nM. The Ratio IC50 in experiment [2] worked out at 11.6. For the same compound, the half-maximal inhibitory concentration (IC50) in experiment [3] was found to be 166 nM; in experiment [4] it was 1920 nM.

Regarding `O=C(c1cc(Cc2n[nH]c(=O)c3ccccc23)ccc1F)N1CCN(C(=O)C2CC2)CC1` [OLAPARIB], the CC50 in experiment [5] is 400 nM; in experiment [1], 11.4 nM.

As for `CNCc1ccc(-c2ccc3c(Cl)cc(C(N)=O)n3n2)cc1`, the CC50 in experiment [5] (Cricetulus griseus, V-C8) turned out to be 2000 nM; in experiment [1] (Homo sapiens, MDA-MB-436) it was 1280 nM. In addition, the Ratio IC50 in experiment [2] was found to be 4.5. Further, the 50% inhibitory concentration (IC50) came to 249 nM in experiment [3] and 1120 nM in experiment [4].

Take `COC1CCN(C(=O)c2ccc(-c3ccc4c(Cl)cc(C(N)=O)n4n3)c(F)c2)CC1`: the Ratio IC50 in experiment [2] turned out to be 8.9. For the same compound, the IC50 in experiment [3] was 114 nM; in experiment [4], 1640 nM.

Regarding `NC(=O)c1cc(Cl)c2ccc(-c3cc4c(s3)CCNC4)nn12`, the 50% cytotoxic concentration (CC50) was 1330 nM in experiment [5] (Cricetulus griseus, V-C8) and 214 nM in experiment [1] (Homo sapiens, MDA-MB-436). In addition, the figures for the 50% inhibitory concentration (IC50) in experiment [3] and in experiment [4] were 7.24 nM and 209 nM, respectively.

Regarding `NC(=O)c1cc(Cl)c2ccc(-c3ccc(CN4CCN(c5ccc(C(F)(F)F)cc5)CC4)cc3)nn12`, the half-maximal cytotoxic concentration (CC50) in experiment [5] (Cricetulus griseus, V-C8) was greater than 10000 nM; in experiment [1] (Homo sapiens, MDA-MB-436) it was 8090 nM. Moreover, the Ratio IC50 in experiment [2] was determined as 0.13. Also, the IC50 was determined as 3330 nM in experiment [3] and 445 nM in experiment [4].

On to `NC(=O)c1cc(Cl)c2ccc(-c3ccc(C(=O)N4CCN(C(=O)C5CC5)CC4)cc3)nn12`, for which the cytotoxic concentration (CC50) in experiment [5] (Cricetulus griseus, V-C8) was 2480 nM; in experiment [1] (Homo sapiens, MDA-MB-436) it was 9540 nM. The Ratio IC50 in experiment [2] was found to be 2.5. Besides, the 50% inhibitory concentration (IC50) in experiment [3] came to 443 nM; in experiment [4], 1100 nM.

In the case of `CC(C)(C)C1NCCc2cc(-c3ccc4c(Cl)cc(C(N)=O)n4n3)sc21` (centres undefined), the CC50 stood at 2040 nM in experiment [5] (Cricetulus griseus, V-C8) and 1460 nM in experiment [1] (Homo sapiens, MDA-MB-436). In addition, the Ratio IC50 in experiment [2] was determined as 0.97. In addition, the concentration for half-maximal inhibition (IC50) in experiment [3] came out at 1030 nM; in experiment [4] it was 1000 nM.

For `NC(=O)c1cc(Cl)c2ccc(-c3ccc(CN4CCN(C5CC5)CC4)cc3)nn12`, the CC50 is greater than 10000 nM in experiment [5] (Cricetulus griseus, V-C8) and 75200 nM in experiment [1] (Homo sapiens, MDA-MB-436). Further, the Ratio IC50 in experiment [2] amounted to 0.92. In addition, the half-maximal inhibitory concentration (IC50) in experiment [3] amounted to 1080 nM; in experiment [4], 997 nM.

Turning to `CN1CCc2sc(-c3ccc4c(Cl)cc(C(N)=O)n4n3)cc2C1`, the CC50 in experiment [5] (Cricetulus griseus, V-C8) is 2640 nM; in experiment [1] (Homo sapiens, MDA-MB-436) it was 3050 nM. For the same compound, the Ratio IC50 in experiment [2] was 2.3. Besides, the IC50 stood at 157 nM in experiment [3] and 363 nM in experiment [4].

For `NC(=O)c1cc(Cl)c2cc(-c3cc4c(s3)CNCC4)cnn12`, the TGI result in experiment [6] was “Dose-dependent effect”.

Consider `CC(C)CC(=O)N1CCN(C(=O)c2ccc(-c3ccc4c(Cl)cc(C(N)=O)n4n3)cc2)CC1`, for which the half-maximal cytotoxic concentration (CC50) was 5750 nM in experiment [5] (Cricetulus griseus, V-C8) and 3840 nM in experiment [1] (Homo sapiens, MDA-MB-436). The Ratio IC50 in experiment [2] turned out to be 2. Also, the IC50 worked out at 502 nM in experiment [3] and 1010 nM in experiment [4].

On to `COC1CCN(C(=O)c2ccc(-c3ccc4c(Cl)cc(C(N)=O)n4n3)cc2)CC1`, for which the CC50 in experiment [5] (Cricetulus griseus, V-C8) came to 4420 nM. Moreover, the Ratio IC50 in experiment [2] came to 1.28. In addition, the IC50 came to 3510 nM in experiment [3] and 4510 nM in experiment [4].

As to `NC(=O)c1cc(Cl)c2ccc(-c3ccc(C(=O)N4CCN(C(=O)C5CC5)CC4)cc3F)nn12`, the CC50 is 2310 nM in experiment [5] (Cricetulus griseus, V-C8) and 2950 nM in experiment [1] (Homo sapiens, MDA-MB-436). Besides, the Ratio IC50 in experiment [2] worked out at 10.7. In addition, the half-inhibitory concentration (IC50) in experiment [3] is 219 nM; in experiment [4] it was 2320 nM.

Consider `COC1CCN(C(=O)c2ccc(-c3ccc4c(Cl)cc(C(N)=O)n4n3)c(F)c2)C1` (centres undefined), for which the Ratio IC50 in experiment [2] is 2.4. Besides, the IC50 worked out at 661 nM in experiment [3] and 1590 nM in experiment [4].

With `CCN(CC)Cc1ccc(-c2ccc3c(Cl)cc(C(N)=O)n3n2)cc1`, the CC50 stood at 3510 nM in experiment [5] (Cricetulus griseus, V-C8) and 3730 nM in experiment [1] (Homo sapiens, MDA-MB-436). The Ratio IC50 in experiment [2] worked out at 5.1. The figures for the 50% inhibitory concentration (IC50) in experiment [3] and in experiment [4] were 434 nM and 2200 nM, respectively.

In the case of `NC(=O)c1cc(Cl)c2ccc(-c3ccc(CN4CCNCC4)cc3)nn12`, in experiment [1] (Homo sapiens, MDA-MB-436), half-maximal cytotoxicity (CC50) was put at 9670 nM. Also, the Ratio IC50 in experiment [2] stood at 3.7. Also, the 50% inhibitory concentration (IC50) in experiment [3] stood at 627 nM; in experiment [4], 2330 nM.

Consider `NC(=O)c1cc(Cl)c2ccc(-c3ccc(CN4CCCC4)cc3)nn12`, for which the CC50 was 2150 nM in experiment [5] (Cricetulus griseus, V-C8) and 5400 nM in experiment [1] (Homo sapiens, MDA-MB-436). In addition, in experiment [2], the Ratio IC50 was 2.6. Also, the IC50 in experiment [3] amounted to 432 nM; in experiment [4], 1120 nM.

`CN(C)C1CCN(Cc2ccc(-c3ccc4c(Cl)cc(C(N)=O)n4n3)cc2)CC1`: the CC50 in experiment [5] (Cricetulus griseus, V-C8) was determined as 2780 nM; in experiment [1] (Homo sapiens, MDA-MB-436), 5480 nM. The Ratio IC50 in experiment [2] is 1.4. For the same compound, the IC50 in experiment [3] was determined as 818 nM; in experiment [4], 1130 nM.

`NC(=O)c1cc(Cl)c2ccc(-c3ccc(C(=O)N4CCNCC4)cc3)nn12`: the CC50 was greater than 10000 nM in experiment [5] (Cricetulus griseus, V-C8) and 8090 nM in experiment [1] (Homo sapiens, MDA-MB-436). In addition, in experiment [2], the Ratio IC50 amounted to 3. The IC50 was 340 nM in experiment [3] and 1010 nM in experiment [4].

With `CC(C)N1CCN(Cc2ccc(-c3ccc4c(Cl)cc(C(N)=O)n4n3)cc2)CC1`, the CC50 in experiment [5] (Cricetulus griseus, V-C8) stood at 2700 nM; in experiment [1] (Homo sapiens, MDA-MB-436), 3550 nM. Besides, in experiment [2], the Ratio IC50 was found to be 3.9. The IC50 in experiment [3] was 369 nM; in experiment [4] it was 1440 nM.
